According to PMC5155152, “A diverse intrinsic antibiotic resistome from a cave bacterium” (Nature Communications, 2016):

Tests used:
Format in all cases: biochemical, Paenibacillus sp. LC231
AAC(6′)-34 = test system: T1, AAC(6′)-34; experiment: CoA liberation with DTDP, steady-state kinetics; details: 35 μM sisomicin, 25 mM MES pH 6.0, 1 mM EDTA, 25 °C
T1 construct: recombinant in E. coli BL21(DE3), pET vector, Ni-NTA purified

VatI = test system: T2, VatI; experiment: steady-state kinetics; details: 100 μM flopristin, 50 mM HEPES pH 7.5, 150 mM NaCl, 0.1 mM EDTA, 25 °C
T2 construct: recombinant in E. coli BL21(DE3), pET vector, Ni-NTA purified

CpaA = test system: T3, CpaA; experiment: spectrophotometric steady-state kinetics; details: 5 μM capreomycin, 50 mM HEPES pH 7.5, 150 mM NaCl, 0.1 mM EDTA, room temperature
T3 construct: recombinant in E. coli BL21(DE3), pET vector, Ni-NTA purified

Structure (SMILES): CC(=O)SCCNC(=O)CCNC(=O)[C@H](O)C(C)(C)COP(=O)(O)OP(=O)(O)OC[C@H]1O[C@@H](n2cnc3c(N)ncnc32)[C@H](O)[C@@H]1OP(=O)(O)O [acetyl-CoA]
- Km (AAC(6′)-34): 220 ± 26 µM
- Km (VatI): 48 ± 3 µM
- Km (CpaA): 39 ± 3 µM
